Source: US20150052630A1, “Methods and Compositions for Obtaining Useful Plant Traits” (Board of Regents of the University of Nebraska, priority 2013, published 2015)
“Also recorded” adds a separate entry of the source.

System: Arabidopsis seedlings (wild type Col-0, epi-line, Col-0/msh1 graft progeny)
Test: 5-Azacytidine treatment and root length assay (methylation inhibition assay)
Type: in vivo
Details: 50 μM 5-azacytidine, half-strength MS plates, seedlings transferred 3 days post-germination, root lengths measured at ten days
Excerpt: FIG. 27A-C. a, Distribution of msh1 SNPs and indels versus Col-0 across the genome. Each dot represents the number of SNPs and indels found in a window of 50 kbp. Note that the Y-axis has been synchronized with the maximum number found on chr4 to enable comparisons between chromosomes. The region 7,800,000-9,850,0000 bp on chr4, a likely introgressed segment from Ler, contains 8582 of the total 12,771 SNPs and indels. […] Paired-end genome-wide sequencing, alignment and de novo partial assembly of the chm1-1 genome produced 14,416 contigs (n50=40,761 bp) containing 118.5 Mbp; mapping these contigs against Col-0 covers 72 Mbp. Alignment of paired-end reads to the Col-0 public reference sequence produced 95% alignment and identified 12,771 SNPs and indels, with the one 2-Mbp interval, on chromosome 4, accounting for 8,582 and the second on Chromosome 3 accounting for 2200. […]
Treatment with azacytidine can be used to nullify methylation effects^42. […] Ten days after moving to growth chamber, plates were scanned and root lengths were measured using ImageJ. […]

## Nc1ncn([C@@H]2O[C@H](CO)[C@@H](O)[C@H]2O)c(=O)n1 [5-azacytidine]
  effect on enhanced epi-line root length: restoration of epi-F3 seedlings to wild type growth levels; also recorded: abolished
